{
  "source": "ChEMBL document CHEMBL3112414",
  "about": "“Synthesis of 3-tetrazolylmethyl-4H-chromen-4-ones via Ugi-azide and biological evaluation against Entamoeba histolytica, Giardia lamblia and Trichomona vaginalis” (Bioorg Med Chem, 2014)",
  "format_in_all_cases": "functional, organism-based",
  "key": {"Trichomonas vaginalis": {"system": "Trichomonas vaginalis", "assay": "Antiprotozoal activity against trophozoite stage of Trichomonas vaginalis GT3 assessed as growth inhibition"}, "Giardia intestinalis": {"system": "Giardia intestinalis", "assay": "Antiprotozoal activity against trophozoite stage of Giardia lamblia IMSS:8909:1 assessed as growth inhibition after 48 hrs", "settings": "Giardia duodenalis, IMSS:8909:1, 48 h"}, "Entamoeba histolytica": {"system": "Entamoeba histolytica", "assay": "Antiprotozoal activity against trophozoite stage of Entamoeba histolytica HM-1:IMSS assessed as growth inhibition after 48 hrs"}},
  "data": [
    {"smiles": "O=c1c(C(Nc2ccccc2Br)c2nnnn2C2CCCCC2)coc2ccccc12", "note": "(stereo not given)", "values": [
      {"measurement": "IC50", "setting": "Trichomonas vaginalis", "value": 195, "unit": "µM"},
      {"measurement": "IC50", "setting": "Giardia intestinalis", "value": 253, "unit": "µM"},
      {"measurement": "IC50", "setting": "Entamoeba histolytica", "value": 114, "unit": "µM"}
    ]},
    {"smiles": "O=c1c(C(Nc2ccccc2[N+](=O)[O-])c2nnnn2C2CCCCC2)coc2ccccc12", "note": "(stereo not given)", "values": [
      {"measurement": "IC50", "setting": "Trichomonas vaginalis", "value": 188, "unit": "µM"},
      {"measurement": "IC50", "setting": "Giardia intestinalis", "value": 194, "unit": "µM"},
      {"measurement": "IC50", "setting": "Entamoeba histolytica", "value": 124, "unit": "µM"}
    ]},
    {"smiles": "CC(C)(C)n1nnnc1C(Nc1ccccc1I)c1coc2ccccc2c1=O", "note": "(stereo not given)", "values": [
      {"measurement": "IC50", "setting": "Trichomonas vaginalis", "value": 280, "unit": "µM"},
      {"measurement": "IC50", "setting": "Giardia intestinalis", "value": 207, "unit": "µM"},
      {"measurement": "IC50", "setting": "Entamoeba histolytica", "value": 134, "unit": "µM"}
    ]},
    {"smiles": "O=c1c(C(Nc2ccccc2I)c2nnnn2C2CCCCC2)coc2ccccc12", "note": "(stereo not given)", "values": [
      {"measurement": "IC50", "setting": "Trichomonas vaginalis", "value": 282, "unit": "µM"},
      {"measurement": "IC50", "setting": "Giardia intestinalis", "value": 198, "unit": "µM"},
      {"measurement": "IC50", "setting": "Entamoeba histolytica", "value": 122, "unit": "µM"}
    ]},
    {"smiles": "CC(C)(C)n1nnnc1C(Nc1ccccc1)c1coc2ccccc2c1=O", "note": "(stereo not given)", "values": [
      {"measurement": "IC50", "setting": "Trichomonas vaginalis", "value": 432, "unit": "µM"},
      {"measurement": "IC50", "setting": "Giardia intestinalis", "value": 316, "unit": "µM"},
      {"measurement": "IC50", "setting": "Entamoeba histolytica", "value": 188, "unit": "µM"}
    ]},
    {"smiles": "O=c1c(C(Nc2ccccc2)c2nnnn2C2CCCCC2)coc2ccccc12", "note": "(stereo not given)", "values": [
      {"measurement": "IC50", "setting": "Trichomonas vaginalis", "value": 374, "unit": "µM"},
      {"measurement": "IC50", "setting": "Giardia intestinalis", "value": 286, "unit": "µM"},
      {"measurement": "IC50", "setting": "Entamoeba histolytica", "value": 183, "unit": "µM"}
    ]},
    {"smiles": "CC(C)(C)n1nnnc1C(Nc1ccc(Cl)cc1)c1coc2ccccc2c1=O", "note": "(stereo not given)", "values": [
      {"measurement": "IC50", "setting": "Trichomonas vaginalis", "value": 371, "unit": "µM"},
      {"measurement": "IC50", "setting": "Giardia intestinalis", "value": 269, "unit": "µM"},
      {"measurement": "IC50", "setting": "Entamoeba histolytica", "value": 161, "unit": "µM"}
    ]},
    {"smiles": "O=c1c(C(Nc2ccc(Cl)cc2)c2nnnn2C2CCCCC2)coc2ccccc12", "note": "(stereo not given)", "values": [
      {"measurement": "IC50", "setting": "Trichomonas vaginalis", "value": 284, "unit": "µM"},
      {"measurement": "IC50", "setting": "Giardia intestinalis", "value": 218, "unit": "µM"},
      {"measurement": "IC50", "setting": "Entamoeba histolytica", "value": 176, "unit": "µM"}
    ]},
    {"smiles": "CC(C)(C)n1nnnc1C(Nc1ccc(I)cc1)c1coc2ccccc2c1=O", "note": "(stereo not given)", "values": [
      {"measurement": "IC50", "setting": "Trichomonas vaginalis", "value": 246, "unit": "µM"},
      {"measurement": "IC50", "setting": "Giardia intestinalis", "value": 197, "unit": "µM"},
      {"measurement": "IC50", "setting": "Entamoeba histolytica", "value": 142, "unit": "µM"}
    ]},
    {"smiles": "O=c1c(C(Nc2ccc(I)cc2)c2nnnn2C2CCCCC2)coc2ccccc12", "note": "(stereo not given)", "values": [
      {"measurement": "IC50", "setting": "Trichomonas vaginalis", "value": 222, "unit": "µM"},
      {"measurement": "IC50", "setting": "Giardia intestinalis", "value": 226, "unit": "µM"},
      {"measurement": "IC50", "setting": "Entamoeba histolytica", "value": 117, "unit": "µM"}
    ]},
    {"smiles": "O=c1c(C(Nc2ccc([N+](=O)[O-])cc2)c2nnnn2C2CCCCC2)coc2ccccc12", "note": "(stereo not given)", "values": [
      {"measurement": "IC50", "setting": "Trichomonas vaginalis", "value": 205, "unit": "µM"},
      {"measurement": "IC50", "setting": "Giardia intestinalis", "value": 247, "unit": "µM"},
      {"measurement": "IC50", "setting": "Entamoeba histolytica", "value": 116, "unit": "µM"}
    ]},
    {"smiles": "COc1ccc(NC(c2coc3ccccc3c2=O)c2nnnn2-c2c(C)cccc2C)cc1OC", "note": "(stereo not given)", "values": [
      {"measurement": "IC50", "setting": "Trichomonas vaginalis", "value": 192, "unit": "µM"},
      {"measurement": "IC50", "setting": "Giardia intestinalis", "value": 240, "unit": "µM"},
      {"measurement": "IC50", "setting": "Entamoeba histolytica", "value": 111, "unit": "µM"}
    ]},
    {"smiles": "COc1cc(NC(c2coc3ccccc3c2=O)c2nnnn2C2CCCCC2)cc(OC)c1OC", "note": "(stereo not given)", "values": [
      {"measurement": "IC50", "setting": "Trichomonas vaginalis", "value": 176, "unit": "µM"},
      {"measurement": "IC50", "setting": "Giardia intestinalis", "value": 171, "unit": "µM"},
      {"measurement": "IC50", "setting": "Entamoeba histolytica", "value": 87.9, "unit": "µM"}
    ]},
    {"smiles": "CC(C)(C)n1nnnc1C(Nc1ccccc1Br)c1coc2ccccc2c1=O", "note": "(stereo not given)", "values": [
      {"measurement": "IC50", "setting": "Trichomonas vaginalis", "value": 234, "unit": "µM"},
      {"measurement": "IC50", "setting": "Giardia intestinalis", "value": 242, "unit": "µM"},
      {"measurement": "IC50", "setting": "Entamoeba histolytica", "value": 125, "unit": "µM"}
    ]},
    {"smiles": "COc1ccc(-c2coc3cc(O)ccc3c2=O)cc1", "note": "[FORMONONETIN]", "values": [
      {"measurement": "IC50", "setting": "Giardia intestinalis", "value": 0.03, "unit": "µg/mL"}
    ]},
    {"smiles": "Cc1ncc([N+](=O)[O-])n1CCO", "note": "[METRONIDAZOLE]", "values": [
      {"measurement": "IC50", "setting": "Giardia intestinalis", "value": 1.22, "unit": "µg/mL"},
      {"measurement": "IC50", "setting": "Entamoeba histolytica", "value": 0.23, "unit": "µg/mL"}
    ]}
  ]
}
